# In patent publication US20250255867A1 (Kadmon Corporation, LLC, priority 2022, published 2025):
# System: patients with cGVHD
# Assay: Example 1: pulmonary function (percent predicted FEV1, FVC, DLco, TLC, RV) change from baseline
# Type: in vivo, human
# Procedure: Change From Baseline in Percent Predicted Forced Expiratory Volume in 1 Second (FEV1) at Each Specified Time Points. FEV1 was the volume of air exhaled from the lungs in the first second of a forced expiration as measured by spirometer. Baseline value was defined as valid and last non-missing value obtained within 28 days prior to participant receiving first study medication. EOT visit was performed within 3 days after the participant's last dose of study drug. […] Analysis was performed on mITT population. Here, ‘number analyzed’=participants with available data for each specified category. Here, ‘0’ in the number analyzed field signifies that none of the participants were available for the analysis at the specified time points.
# Change From Baseline in Percent Predicted Forced Vital Capacity (FVC) at Each Specified Time Points. FVC was the total amount of air (in liters) exhaled from the lungs during the lung function test measured by spirometer which assessed the change in lung function related to the disease status. Baseline value was defined as valid and last non-missing value obtained within 28 days prior to participant receiving first study medication. EOT visit was performed within 3 days after the participant's last dose of study drug. […] Analysis was performed on mITT population. Here, ‘number analyzed’=participants with available data for each specified category. Here, ‘0’ in the number analyzed field signifies that none of the participants were available for the analysis at the specified time points.
# Change From Baseline in Percent Predicted Hemoglobin (HGB) Corrected Diffusing Capacity of Lung for Carbon Monoxide (DLco) at Each Specified Time Points. DLco is a measurement of the ability of the lungs to transfer gases from the air to the blood. Change from baseline in diffusing capacity of the lung for carbon monoxide (percent predicted hemoglobin level corrected) was reported for this measure. Baseline value was defined as valid and last non-missing value obtained within 28 days prior to participant receiving first study medication. EOT visit was performed within 3 days after the participant's last dose of study drug. […] Analysis was performed on mITT population. Here, ‘number analyzed’=participants with available data for each specified category. Here, ‘0’ in the number analyzed field signifies that none of the participants were available for the analysis at the specified time points.
# Change From Baseline in Percent Predicted Total Lung Capacity (TLC) at Each Specified Time Points. TLC is the volume of air in the lungs upon the maximum effort of inspiration. Baseline value was defined as valid and last non-missing value obtained within 28 days prior to participant receiving first study medication. EOT visit was performed within 3 days after the participant's last dose of study drug. […] Analysis was performed on mITT population. Here, ‘number analyzed’=participants with available data for each specified category.
smiles,measurement,setting,value
"CC(C)NC(=O)COc1cccc(-c2nc(Nc3ccc4[nH]ncc4c3)c3ccccc3n2)c1 [Belumosudil, 2-{3-[4-(1H-indazol-5-ylamino)-2-quinazolinyl]phenoxy}-N-(propan-2-yl) acetamide]","Change From Baseline in Percent Predicted Residual Volume (RV), Mean (Standard Deviation)","Cohort 2: 200 mg BID, Cycle 13, Day 1, n=4",−27.0 (35.6) percent predicted RV
same,"Change From Baseline in Percent Predicted Residual Volume (RV), Mean (Standard Deviation)","Cohort 2: 200 mg BID, Cycle 14, Day 1, n=1",−31.0 (—) percent predicted RV
same,"Change From Baseline in Percent Predicted Residual Volume (RV), Mean (Standard Deviation)","Cohort 2: 200 mg BID, Cycle 15, Day 1, n=3",−0.7 (18.1) percent predicted RV
same,"Change From Baseline in Percent Predicted Residual Volume (RV), Mean (Standard Deviation)","Cohort 2: 200 mg BID, Cycle 16, Day 1, n=2",−36.5 (13.4) percent predicted RV
same,"Change From Baseline in Percent Predicted Residual Volume (RV), Mean (Standard Deviation)","Cohort 2: 200 mg BID, Cycle 17, Day 1, n=3",−47.3 (25.1) percent predicted RV
same,"Change From Baseline in Percent Predicted Residual Volume (RV), Mean (Standard Deviation)","Cohort 2: 200 mg BID, Cycle 18, Day 1, n=2",−42.0 (0.0) percent predicted RV
same,"Change From Baseline in Percent Predicted Residual Volume (RV), Mean (Standard Deviation)","Cohort 2: 200 mg BID, Cycle 19, Day 1, n=3",−19.7 (18.0) percent predicted RV
same,"Change From Baseline in Percent Predicted Residual Volume (RV), Mean (Standard Deviation)","Cohort 2: 200 mg BID, Cycle 20, Day 1, n=2",−7.5 (37.5) percent predicted RV
same,"Change From Baseline in Percent Predicted Residual Volume (RV), Mean (Standard Deviation)","Cohort 2: 200 mg BID, Cycle 21, Day 1, n=1",−44.0 (—) percent predicted RV
same,"Change From Baseline in Percent Predicted Residual Volume (RV), Mean (Standard Deviation)","Cohort 2: 200 mg BID, Cycle 22, Day 1, n=2",−33.0 (19.8) percent predicted RV
same,"Change From Baseline in Percent Predicted Residual Volume (RV), Mean (Standard Deviation)","Cohort 2: 200 mg BID, Cycle 23, Day 1, n=1",−72.0 (—) percent predicted RV
same,"Change From Baseline in Percent Predicted Residual Volume (RV), Mean (Standard Deviation)","Cohort 2: 200 mg BID, Cycle 24, Day 1, n=1",−17.0 (—) percent predicted RV
same,"Change From Baseline in Percent Predicted Residual Volume (RV), Mean (Standard Deviation)","Cohort 2: 200 mg BID, Cycle 25, Day 1, n=2",−34.0 (31.1) percent predicted RV
same,"Change From Baseline in Percent Predicted Residual Volume (RV), Mean (Standard Deviation)","Cohort 2: 200 mg BID, Cycle 27, Day 1, n=2",−39.5 (20.5) percent predicted RV
same,"Change From Baseline in Percent Predicted Residual Volume (RV), Mean (Standard Deviation)","Cohort 2: 200 mg BID, Cycle 29, Day 1, n=1",−13.0 (—) percent predicted RV
same,"Change From Baseline in Percent Predicted Residual Volume (RV), Mean (Standard Deviation)","Cohort 2: 200 mg BID, Cycle 37, Day 1, n=1",−70.0 (—) percent predicted RV
same,"Change From Baseline in Percent Predicted Residual Volume (RV), Mean (Standard Deviation)","Cohort 2: 200 mg BID, Cycle 39, Day 1, n=2",−43.0 (42.4) percent predicted RV
same,"Change From Baseline in Percent Predicted Residual Volume (RV), Mean (Standard Deviation)","Cohort 2: 200 mg BID, Cycle 43, Day 1, n=1",−26.0 (—) percent predicted RV
same,"Change From Baseline in Percent Predicted Residual Volume (RV), Mean (Standard Deviation)","Cohort 2: 200 mg BID, EOT, n=8",10.6 (34.9) percent predicted RV
same,"Change From Baseline in Percent Predicted Residual Volume (RV), Mean (Standard Deviation)","Cohort 3: 400 mg QD, Cycle 2, Day 1, n=4",−18.0 (30.1) percent predicted RV
same,"Change From Baseline in Percent Predicted Residual Volume (RV), Mean (Standard Deviation)","Cohort 3: 400 mg QD, Cycle 3, Day 1, n=12",9.0 (34.4) percent predicted RV
same,"Change From Baseline in Percent Predicted Residual Volume (RV), Mean (Standard Deviation)","Cohort 3: 400 mg QD, Cycle 4, Day 1, n=6",17.8 (29.0) percent predicted RV
same,"Change From Baseline in Percent Predicted Residual Volume (RV), Mean (Standard Deviation)","Cohort 3: 400 mg QD, Cycle 5, Day 1, n=10",−3.7 (29.8) percent predicted RV
same,"Change From Baseline in Percent Predicted Residual Volume (RV), Mean (Standard Deviation)","Cohort 3: 400 mg QD, Cycle 6, Day 1, n=7",−10.9 (37.5) percent predicted RV
same,"Change From Baseline in Percent Predicted Residual Volume (RV), Mean (Standard Deviation)","Cohort 3: 400 mg QD, Cycle 7, Day 1, n=12",−7.5 (33.0) percent predicted RV
same,"Change From Baseline in Percent Predicted Residual Volume (RV), Mean (Standard Deviation)","Cohort 3: 400 mg QD, Cycle 8, Day 1, n=6",2.5 (39.7) percent predicted RV
same,"Change From Baseline in Percent Predicted Residual Volume (RV), Mean (Standard Deviation)","Cohort 3: 400 mg QD, Cycle 9, Day 1, n=10",0.1 (35.6) percent predicted RV
same,"Change From Baseline in Percent Predicted Residual Volume (RV), Mean (Standard Deviation)","Cohort 3: 400 mg QD, Cycle 10, Day 1, n=5",1.4 (38.2) percent predicted RV
same,"Change From Baseline in Percent Predicted Residual Volume (RV), Mean (Standard Deviation)","Cohort 3: 400 mg QD, Cycle 11, Day 1, n=8",5.4 (38.0) percent predicted RV
same,"Change From Baseline in Percent Predicted Residual Volume (RV), Mean (Standard Deviation)","Cohort 3: 400 mg QD, Cycle 12, Day 1, n=6",−22.2 (49.9) percent predicted RV
same,"Change From Baseline in Percent Predicted Residual Volume (RV), Mean (Standard Deviation)","Cohort 3: 400 mg QD, Cycle 13, Day 1, n=8",0.3 (32.6) percent predicted RV
same,"Change From Baseline in Percent Predicted Residual Volume (RV), Mean (Standard Deviation)","Cohort 3: 400 mg QD, Cycle 14, Day 1, n=6",−6.5 (36.3) percent predicted RV
same,"Change From Baseline in Percent Predicted Residual Volume (RV), Mean (Standard Deviation)","Cohort 3: 400 mg QD, Cycle 15, Day 1, n=7",−16.7 (22.3) percent predicted RV
same,"Change From Baseline in Percent Predicted Residual Volume (RV), Mean (Standard Deviation)","Cohort 3: 400 mg QD, Cycle 16, Day 1, n=4",−27.5 (31.9) percent predicted RV
same,"Change From Baseline in Percent Predicted Residual Volume (RV), Mean (Standard Deviation)","Cohort 3: 400 mg QD, Cycle 17, Day 1, n=7",−39.1 (26.2) percent predicted RV
same,"Change From Baseline in Percent Predicted Residual Volume (RV), Mean (Standard Deviation)","Cohort 3: 400 mg QD, Cycle 18, Day 1, n=3",−7.3 (33.7) percent predicted RV
same,"Change From Baseline in Percent Predicted Residual Volume (RV), Mean (Standard Deviation)","Cohort 3: 400 mg QD, Cycle 19, Day 1, n=4",−23.5 (18.7) percent predicted RV
same,"Change From Baseline in Percent Predicted Residual Volume (RV), Mean (Standard Deviation)","Cohort 3: 400 mg QD, Cycle 20, Day 1, n=3",−22.0 (44.3) percent predicted RV
same,"Change From Baseline in Percent Predicted Residual Volume (RV), Mean (Standard Deviation)","Cohort 3: 400 mg QD, Cycle 21, Day 1, n=5",−30.2 (51.2) percent predicted RV
same,"Change From Baseline in Percent Predicted Residual Volume (RV), Mean (Standard Deviation)","Cohort 3: 400 mg QD, Cycle 22, Day 1, n=2",−41.0 (46.7) percent predicted RV
same,"Change From Baseline in Percent Predicted Residual Volume (RV), Mean (Standard Deviation)","Cohort 3: 400 mg QD, Cycle 23, Day 1, n=4",1.5 (44.8) percent predicted RV
same,"Change From Baseline in Percent Predicted Residual Volume (RV), Mean (Standard Deviation)","Cohort 3: 400 mg QD, Cycle 24, Day 1, n=1",−78.0 (—) percent predicted RV
same,"Change From Baseline in Percent Predicted Residual Volume (RV), Mean (Standard Deviation)","Cohort 3: 400 mg QD, Cycle 25, Day 1, n=3",−23.3 (56.0) percent predicted RV
same,"Change From Baseline in Percent Predicted Residual Volume (RV), Mean (Standard Deviation)","Cohort 3: 400 mg QD, Cycle 27, Day 1, n=2",−41.0 (28.3) percent predicted RV
same,"Change From Baseline in Percent Predicted Residual Volume (RV), Mean (Standard Deviation)","Cohort 3: 400 mg QD, Cycle 29, Day 1, n=2",17.5 (40.3) percent predicted RV
same,"Change From Baseline in Percent Predicted Residual Volume (RV), Mean (Standard Deviation)","Cohort 3: 400 mg QD, Cycle 39, Day 1, n=1",81.0 (—) percent predicted RV
same,"Change From Baseline in Percent Predicted Residual Volume (RV), Mean (Standard Deviation)","Cohort 3: 400 mg QD, Cycle 43, Day 1, n=1",75.0 (—) percent predicted RV
same,"Change From Baseline in Percent Predicted Residual Volume (RV), Mean (Standard Deviation)","Cohort 3: 400 mg QD, Cycle 47, Day 1, n=1",87.0 (—) percent predicted RV
same,"Change From Baseline in Percent Predicted Residual Volume (RV), Mean (Standard Deviation)","Cohort 3: 400 mg QD, Cycle 49, Day 1, n=1",−5.0 (—) percent predicted RV
same,"Change From Baseline in Percent Predicted Residual Volume (RV), Mean (Standard Deviation)","Cohort 3: 400 mg QD, EOT, n=8",−18.5 (32.6) percent predicted RV
